Format in all cases: cell-based, human
Assay [1] concerns 033 T PDX cells. As to the kind of experiment: In vitro drug sensitivity assay (ATPlite cell viability, 6 days, sphere culture). To be noted: for effect on 033 T cell proliferation (in words): in vitro drug screen; for IC50: Homo sapiens, primary culture in serum-free sphere conditions. The protocol: (§1) Primary cultures of PDX cells in the serum-free sphere culture conditions were seeded in 384-well plates, at 500 cells per well. Two hours after plating, cells were treated with a drug library in three-fold and 10-point serial dilutions (n = 3, for each condition). Cells were incubated for 6 days at 37 °C, in a 5% CO2 humidified incubator, and the cell viability was analyzed using an adenosine triphosphate monitoring system based on firefly luciferase (ATPlite 1step; PerkinElmer, Waltham, MA, USA). […] The drugs were stored and diluted according to the manufacturer’s instructions. The tested concentrations for each drug were empirically derived, in order to investigate a clinically relevant spectrum of drug activities. IC50 values were calculated as an average of triplicate experiments using S+ Chip Analyzer (Samsung Electro-Mechanics Company, Ltd., Suwon, Korea). In order to investigate the effects of the treatment with targeted agents, signal transduction assays were performed using primarily cultured NSCLC PDX cells, which were maintained overnight in serum-free sphere culture conditions, without growth factors, incubated for 1 h with each inhibitor, and pulsed with original culture medium supplemented with bFGF/EGF/NRG/IGF for 15 min.
For orientation: ATP-based viability assays read luminescence as a measure of living cells.

The test system of assay [2] is 033 T cells. As to the kind of experiment: Cell proliferation time course of 033 T cells (WST-1). Conditions: from day 5 onward. The method, then:
(§2) Xenograft tumor specimens were dissociated into single cells according to previously published protocol. Dissociated cells were cultured in Neurobasal medium-A, supplemented with N2 (×1/2; Life Technologies, Carlsbad, CA, USA), B27 (×1/2; GIBCO), basic fibroblast growth factor (bFGF; 25 ng/mL; R&D Systems, Minneapolis, MN, USA), EGF (25 ng/mL; R&D Systems, Minneapolis, MN, USA), neuregulin 1 (NRG; 10 ng/mL; R&D Systems, Minneapolis, MN, USA), and insulin-like growth factor 1 (IGF1; 100 ng/mL; R&D Systems, Minneapolis, MN, USA). Growth factors were supplemented every 3 days. When spheres appeared in the suspension culture, they were dissociated using StemPro Accutase (Life Technologies, Carlsbad, CA, USA), and reseeded in the suspension culture medium. Cells were grown in complete medium and treated with inhibitors 1 day after seeding. Five days later, the surviving cells were quantified by WST-1 staining (Roche Genentech, San Francisco, CA, USA).

Assay [3] deals with phosphorylation of ERK1/2. The assay can be described thus: Signal transduction assay, western blot. To be noted: 033 T cells. The method, then:
(§3) Primary cultures of PDX cells in the serum-free sphere culture conditions were seeded in 384-well plates, at 500 cells per well. Two hours after plating, cells were treated with a drug library in three-fold and 10-point serial dilutions (n = 3, for each condition). Cells were incubated for 6 days at 37 °C, in a 5% CO2 humidified incubator, and the cell viability was analyzed using an adenosine triphosphate monitoring system based on firefly luciferase (ATPlite 1step; PerkinElmer, Waltham, MA, USA). The drug library was composed of 17 targeted agents that were included in the clinical guidelines or current clinical trials for the treatment of NSCLC (gefitinib, erlotinib, lapatinib, afatinib, neratinib, caneratinib, dacomitinib, infigratinib, vandetanib, sunitinib, imatinib, CI-1040, vemurafenib, palbociclib, crizotinib, sonidegib, buparlisib; all purchased from Selleckchem, Houston, TX, USA). The drugs were stored and diluted according to the manufacturer’s instructions. The tested concentrations for each drug were empirically derived, in order to investigate a clinically relevant spectrum of drug activities. IC50 values were calculated as an average of triplicate experiments using S+ Chip Analyzer (Samsung Electro-Mechanics Company, Ltd., Suwon, Korea). […]
A general note: Immunoblotting shows a protein as a band on a membrane.

Assay [4] has as its system phosphorylation of STAT3. As to the kind of experiment: Signal transduction assay, western blot. Conditions: 033 T cells. The protocol:
as §3

Assay [5] deals with phosphorylation of MET. As to the kind of experiment: Signal transduction assay, western blot. To be noted: 033 T cells. The method, then:
as §1

In assay [6] the test system is 033 T cells. The assay can be described thus: Tumor sphere formation in 033 T cell cultures. The protocol: as §2
The mark [7] stands for this setting: resistant if IC50 > 1000 nmol/L.

Usually IC50 stands for the midpoint of a concentration-inhibition curve. A high value points to a need for much substance.

Turning to `COc1cc2ncnc(Nc3ccc(F)c(Cl)c3)c2cc1OCCCN1CCOCC1` [gefitinib], in assay [1], the “effect on 033 T cell proliferation (in words)” value (“effect” for short) is on record as “marked inhibitory effects”.

`CN(C)C/C=C/C(=O)Nc1cc2c(Nc3ccc(F)c(Cl)c3)ncnc2cc1O[C@H]1CCOC1` [afatinib] returned an IC50 in assay [1] (setting [7]) of 0.971 µM.

Turning to `C[C@@H](Oc1cc(-c2cnn(C3CCNCC3)c2)cnc1N)c1c(Cl)ccc(F)c1Cl` [crizotinib], the cell proliferation result in assay [2] was “significantly inhibited cell proliferation”. In addition, the “phosphorylation of ERK1/2” value in assay [3] is recorded as “completely abolishing”. Further, the “phosphorylation of STAT3” value in assay [4] is “completely abolishing”. Also, the IC50 in assay [1] (setting [7]) is 0.691 µM. The “phosphorylation of MET” value in assay [5] was “completely abolishing”. Besides, in assay [6], the tumor sphere formation entry is “impaired tumor sphere formation”.

Consider `CCOc1cc2ncc(C#N)c(Nc3ccc(OCc4ccccn4)c(Cl)c3)c2cc1NC(=O)/C=C/CN(C)C` [neratinib], for which half-maximal inhibition in assay [1] ([…]) (IC50) was put at 0.133 µM. The “effect” value in assay [1] is listed as “marked inhibitory effects”.

As for `CS(=O)(=O)CCNCc1ccc(-c2ccc3ncnc(Nc4ccc(OCc5cccc(F)c5)c(Cl)c4)c3c2)o1` [lapatinib], the IC50 in assay [1] (setting [7]) came to 1.56 µM.

As to `C#Cc1cccc(Nc2ncnc3cc(OCCOC)c(OCCOC)cc23)c1` [erlotinib], the IC50 in assay [1] ([…]) came out at 0.836 µM.

For `Nc1cc(C(F)(F)F)c(-c2cc(N3CCOCC3)nc(N3CCOCC3)n2)cn1` [buparlisib], in assay [1] (setting [7]), inhibition was half-maximal at 0.507 µM (IC50).

In assay [1] (setting [7]), `C=CC(=O)Nc1cc2c(Nc3ccc(F)c(Cl)c3)ncnc2cc1OCCCN1CCOCC1` [canertinib] gave an IC50 of 0.08 µM. Also, the “effect” value in assay [1] is reported as “effective”.

For the origin of these results see PMC5557466, “Precision medicine approaches to lung adenocarcinoma with concomitant MET and HER2 amplification” (BMC Cancer, 2017).
